Consider 32 compounds from ChEMBL document CHEMBL5390258, “Recent Progress and Prospects of Small Molecules for NLRP3 Inflammasome Inhibition” (J Med Chem, 2023).

The structures appear in SMILES notation. Where only a bound is given, the exact number is not on record here.

For the first assay, the target named is T1, NACHT, LRR and PYD domains-containing protein 3 (Homo sapiens, UniProt Q96P20). Description: Inhibition of NLRP3 in human THP-1 cells assessed as reduction in IL-1beta production. The format is cell-based.
T1 sequence (Q96P20 whole entry, the tested form may be a part): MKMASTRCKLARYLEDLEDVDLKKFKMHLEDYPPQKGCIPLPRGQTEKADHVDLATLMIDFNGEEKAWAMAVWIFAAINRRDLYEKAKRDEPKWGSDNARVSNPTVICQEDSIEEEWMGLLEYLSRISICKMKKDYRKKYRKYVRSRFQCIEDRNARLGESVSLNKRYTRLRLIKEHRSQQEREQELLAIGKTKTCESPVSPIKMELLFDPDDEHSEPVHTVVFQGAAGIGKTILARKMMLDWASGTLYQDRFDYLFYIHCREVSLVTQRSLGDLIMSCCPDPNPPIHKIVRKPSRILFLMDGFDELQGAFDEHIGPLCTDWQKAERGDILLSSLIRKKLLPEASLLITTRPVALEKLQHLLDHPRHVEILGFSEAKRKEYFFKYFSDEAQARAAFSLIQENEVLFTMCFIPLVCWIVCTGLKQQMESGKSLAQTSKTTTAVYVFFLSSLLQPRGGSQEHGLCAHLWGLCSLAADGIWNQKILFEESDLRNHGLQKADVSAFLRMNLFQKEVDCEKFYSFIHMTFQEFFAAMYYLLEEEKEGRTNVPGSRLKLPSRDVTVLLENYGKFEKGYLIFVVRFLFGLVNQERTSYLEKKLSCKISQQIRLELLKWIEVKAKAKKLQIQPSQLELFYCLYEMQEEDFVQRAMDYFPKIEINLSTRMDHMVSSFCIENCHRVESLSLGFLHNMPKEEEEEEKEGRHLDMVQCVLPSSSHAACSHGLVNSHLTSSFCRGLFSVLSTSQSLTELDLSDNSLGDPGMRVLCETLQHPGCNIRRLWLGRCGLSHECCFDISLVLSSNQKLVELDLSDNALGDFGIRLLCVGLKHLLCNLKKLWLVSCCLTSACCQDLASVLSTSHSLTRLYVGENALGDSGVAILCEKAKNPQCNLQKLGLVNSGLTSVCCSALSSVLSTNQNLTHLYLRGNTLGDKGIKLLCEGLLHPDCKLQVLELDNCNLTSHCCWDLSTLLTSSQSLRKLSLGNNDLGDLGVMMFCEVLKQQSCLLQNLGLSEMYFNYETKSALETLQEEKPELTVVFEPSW
The IC50 is the concentration that inhibits the measured activity by half. For the compound `Cc1cc(Br)cc(C)c1-n1cc2c(=O)[nH]c(N3C=COCC3)nc2n1`, the IC50 is 3 nM.
As for `Cc1cc2c(c(NC(=O)NS(=O)(=O)c3cc(C(C)(C)O)co3)c1-c1ccnc(OC3CCN(C)CC3)c1)CCC2`, the half-maximal inhibitory concentration (IC50) is ≤ 250 nM.
On to `CC(C)c1cc(F)cc(C(C)C)c1NC(=O)N=[S+](N)([O-])c1ccc2ccccc2c1` (stereo not given), for which the IC50 was > 30000 nM.
For `CC(C)c1cc(F)cc(C(C)C)c1NC(=O)N=[S+](N)([O-])c1ccccc1-c1ccccc1` (stereo not given), the IC50 is > 30000 nM.
As for `Cc1nc(C(C)C)c(NC(=O)NS(=O)(=O)c2cc(C(C)(C)O)co2)n1-c1ccncc1`, the IC50 was ≤ 250 nM.
As to `Cc1cc2c(c(NC(=O)N[S+](=N)([O-])c3ccccc3)c1-c1ccnc(OC3CCN(C)CC3)c1)CCC2` (stereo not given), the IC50 was < 250 nM.

Another assay has as its target T1, NACHT, LRR and PYD domains-containing protein 3. Description: Inhibition of NLRP3 in human THP-1 cells assessed as reduction in IL-1beta production measured after 3 hrs. In kind it is cell-based.
Take `CC(C)c1cc(NC(=O)NS(=O)(=O)C(c2cnn(C)c2)C2CCCN(C)C2)c(C(C)C)s1` (stereo not given): the half-inhibitory concentration (IC50) is < 100 nM.
Turning to `CCc1oc(C(C)C)cc1NC(=O)NS(=O)(=O)C(c1cnn(C)c1)C1CCCN(C)C1` (stereo not given), the 50% inhibitory concentration (IC50) was < 100 nM.
The same measure, in the same setting: then `CS(=O)(=O)NC(=O)Nc1c(-c2ccnc(OC3CCN(Cc4ccccc4)CC3)c2)ccc2c1CCC2`, with ≤ 250 nM.

The target is the same in a further assay. Put plainly: Inhibition of NLRP3 in human THP-1 cells assessed as reduction in IL-1beta production pre incubated for 3 hrs followed by nigericin addition measured after 1 hrs by resazurin staining based assay. The format is cell-based. A general note: Resazurin is reduced to fluorescent resorufin, in cell work by metabolically active cells.
As for `COc1cc(C)c(S(=O)(=O)NC(=O)Nc2c3c(cc4c2CCC4)CCC3)cn1`, the IC50 was < 1000 nM.
As for `CN1CCC(Oc2cc(-c3ccc4c(c3NC(=O)NS(=O)(=O)C3CC3)CCC4)ccn2)CC1`, the IC50 was ≤ 250 nM.
On to `CN(C)Cc1cc(S(=O)(=O)NC(=O)Nc2c3c(cc4c2CCC4)CCC3)nn1C1CC1`, for which the IC50 is ≤ 40 nM.

For a further assay the target is unchanged. Description: Inhibition of NLRP3 in human PBMC cells assessed as reduction in IL-1beta production preincubated for 30 mins followed by LPS addition measured after 6 hrs. In kind it is cell-based.
For orientation: EC50 means the concentration that produces a half-maximal response. As to `CC(C)c1nn(CC(=O)Nc2ccc3nncn3c2)c(=O)cc1Oc1ccccc1`, the EC50 was > 15000 nM.
On to `CC(C)c1nn(CC(=O)Nc2ccncn2)c(=O)c2cc(I)nn12`, for which the IC50 is < 12 nM.
Regarding `CC(C)c1nn(CC(=O)Nc2ccc3nncn3n2)c(=O)cc1N1CC2CC2C1` (stereo not given), the EC50 came to 90 nM.
Consider `COC(=O)C12CC(NC(=O)Cn3nc(C(C)C)c(OCC(C)C)cc3=O)(C1)C2`, for which the EC50 stood at 10 nM.
For the compound `CC(C)c1nn(CC(=O)N[C@H]2C[C@](C)(O)C2)c(=O)c2ccc(Br)cc12`, the IC50 was < 25 nM.
With `CCNc1cc2c(=O)n(CC(=O)Nc3ccc4nncn4c3)nc(C(C)C)n2n1`, the IC50 was 24 nM.
In the case of `CC(C)c1nn(CC(=O)Nc2ccc3nncn3n2)c(=O)cc1Nc1ccccc1`, the EC50 is > 15000 nM.

The target is the same in another assay. Put plainly: Inhibition of NLRP3 in human PBMC cells assessed as reduction in TNF alpha level preincubated for 30 mins followed by LPS addition measured after 6 hrs. The format is cell-based.
As to `CC(C)c1nn(CC(=O)Nc2ccncn2)c(=O)c2cc(I)nn12`, the 50% inhibitory concentration (IC50) was > 10 µM.
Still for that read-out and setting: then `CC(C)c1nn(CC(=O)Nc2ccc3nncn3c2)c(=O)c2sc(C3CC3)nc12`, with 4.99 µM.
The same measure, in the same setting: then `CC(C)c1nc2c(C(C)C)nn(CC(=O)Nc3ccc4nncn4c3)c(=O)c2s1`, with 11.5 µM; and `CC(C)c1nn(CC(=O)N[C@H]2C[C@](C)(O)C2)c(=O)c2ccc(Br)cc12`, with > 10 µM; and `CCNc1cc2c(=O)n(CC(=O)Nc3ccc4nncn4c3)nc(C(C)C)n2n1`, with 7.04 µM.

The target is the same in another assay. Description: Inhibition of NLRP3 in human THP-1 cells assessed as reduction in IL-1beta production measured after 1 hrs by ELISA assay. The format is cell-based. In general terms: In an ELISA, binding on a coated surface is turned into a signal by an enzyme label.
Turning to `CC(C)c1nn(CC(=O)Nc2ncncc2F)c(=O)c2cc(C(F)(F)F)ccc12`, the IC50 is > 50 µM.
Regarding `CC(C)c1nn(C(C)C(=O)Nc2ncc(F)cn2)c(=O)c2ccc(Br)cc12` (stereo not given), the IC50 was determined as 3.66 µM.
`CCc1c(-c2cccc(F)c2)c(C(C)C)nn(CC(=O)Nc2ncncc2F)c1=O`: the IC50 was 35.3 µM.
`CC(C)c1nn(C2(C(=O)Nc3ncccn3)CC2)c(=O)cc1-c1cc(F)cc(F)c1`: the IC50 turned out to be 1.14 µM.

The test system of the next assay is THP-1. Put plainly: Induction of pyroptosis in human THP-1 cells. In kind it is functional, cell-based.
For the compound `CN1CCC[C@@H](Nc2nnc(-c3sccc3O)c3c2ncn3C)C1`, the EC50 is > 1000 nM.
For the compound `CN1CCC[C@@H](Nc2nnc(-c3ccc(C(F)(F)F)cc3O)c3c2ncn3C)C1`, the EC50 was < 20 nM.
Still for that read-out and setting: for `CN1CCC[C@@H](Nc2nnc(-c3ccc(C(F)(F)F)cc3O)c3ncn(C)c23)C1` the value was < 20 nM; for `CN1CCC[C@@H](Nc2nnc(-c3ccc(C(F)(F)F)cc3O)c3c2nc(C2CC2)n3C)C1`, < 20 nM.

For another assay, the system named is THP-1. Put plainly: Induction of pyroptosis in human THP-1 cells by AlphaLisa assay. In kind it is functional, cell-based.
On to `Cc1cc(Cl)cc(O)c1-c1ccc2oc(N[C@@H]3CCCN4CCC[C@@H]34)nc2n1`, for which it took 27.4 nM to reach half-maximal inhibition (IC50).
As to `CCN1CCC[C@@H](Nc2nc3nc(-c4c(C)cc(Cl)cc4O)ccc3o2)C1`, 0.4 nM corresponded to half-maximal inhibition (IC50).
Compound `Cc1cc(Cl)cc(O)c1-c1ccc2oc(N[C@H]3CCCN4CCC[C@H]34)nc2n1` had a half-maximal inhibitory concentration (IC50) of 0.6 nM.
